Test results taken from ChEMBL document CHEMBL1201862, “PubChem BioAssay data set” (2004).
The source made the active and inactive calls. Rule as the data show it, for most assays here: actives have a measured EC50 and inactives only a lower limit.

Experiments:
[1] = test system: HEK293; test: inhibitors of LMP1-driven NF-kB reporter, dose response, cell-based, HEK293, luciferase, cherry-pick (AID 588343); format: functional; settings: Homo sapiens
[2] = cytotoxicity toward NIH3T3 fibroblasts, dose response, counter-screen, cell-based, ATP luminescence, mouse fibroblasts (AID 2010); format: functional;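 also: cells exposed to compound for about 90 hours before reading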
[3] = molecular target: T1, Replicative DNA helicase DnaB (Mycobacterium tuberculosis, UniProt P9WMR3); test: DnaB intein splicing inhibitors, dose response, biochemical, cell-free fluorescence (AID 449749); format: functional
T1 sequence (P9WMR3 whole entry): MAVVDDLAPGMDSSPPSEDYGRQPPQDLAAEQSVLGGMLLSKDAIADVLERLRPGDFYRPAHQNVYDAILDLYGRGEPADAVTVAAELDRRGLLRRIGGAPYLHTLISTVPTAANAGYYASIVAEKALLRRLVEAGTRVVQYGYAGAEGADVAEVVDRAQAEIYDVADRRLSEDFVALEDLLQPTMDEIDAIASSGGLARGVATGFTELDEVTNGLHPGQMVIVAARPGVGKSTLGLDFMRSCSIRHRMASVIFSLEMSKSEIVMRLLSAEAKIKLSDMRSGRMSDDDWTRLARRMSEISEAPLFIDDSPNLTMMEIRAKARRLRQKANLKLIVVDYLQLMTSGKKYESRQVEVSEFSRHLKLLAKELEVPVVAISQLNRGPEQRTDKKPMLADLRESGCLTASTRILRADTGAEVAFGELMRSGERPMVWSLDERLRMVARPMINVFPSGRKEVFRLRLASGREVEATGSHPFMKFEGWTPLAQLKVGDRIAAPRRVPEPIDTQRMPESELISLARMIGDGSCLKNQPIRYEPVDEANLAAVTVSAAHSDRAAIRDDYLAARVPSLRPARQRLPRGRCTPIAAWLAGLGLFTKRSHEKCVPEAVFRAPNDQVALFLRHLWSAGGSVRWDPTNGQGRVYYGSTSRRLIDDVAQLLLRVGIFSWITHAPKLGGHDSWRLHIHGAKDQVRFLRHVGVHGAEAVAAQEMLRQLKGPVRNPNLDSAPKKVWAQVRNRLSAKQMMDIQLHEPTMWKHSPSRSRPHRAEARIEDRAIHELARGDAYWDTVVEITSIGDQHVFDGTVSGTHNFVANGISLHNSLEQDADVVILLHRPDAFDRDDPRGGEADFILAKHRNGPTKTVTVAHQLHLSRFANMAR

[4] = inhibitors of intracellular T. cruzi replication, confirmation, NIH3T3 host cells, beta-gal luminescence (AID 2044); format: functional, cell-based;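 also: intracellular parasites grown in NIH/3T3 mouse fibroblasts as host cells; luminescent beta-galactosidase reporter signal from transgenic T. cruzi replicating inside host cells; inhibitors lower the luminescence signal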
[5] = Intein inhibitors as potential Tuberculosis drugs, a cytotoxicity screen. [Related pubchem assays (depositor defined):AID2221, AID2223, AID434968, AID435010, AID449749, AID449750, AID489010]; format: functional
[6] = molecular target: T2, Protein RecA (Mycobacterium tuberculosis, UniProt P9WHJ3); test: Fluorescence Cell-Free Homogeneous Dose Retest to Identify Inhibitors of RecA-Intein Splicing Activity. [Related pubchem assays (depositor defined):AID2097, AID2223, AID489010, AID492950]; format: functional
T2 sequence (P9WHJ3 whole entry): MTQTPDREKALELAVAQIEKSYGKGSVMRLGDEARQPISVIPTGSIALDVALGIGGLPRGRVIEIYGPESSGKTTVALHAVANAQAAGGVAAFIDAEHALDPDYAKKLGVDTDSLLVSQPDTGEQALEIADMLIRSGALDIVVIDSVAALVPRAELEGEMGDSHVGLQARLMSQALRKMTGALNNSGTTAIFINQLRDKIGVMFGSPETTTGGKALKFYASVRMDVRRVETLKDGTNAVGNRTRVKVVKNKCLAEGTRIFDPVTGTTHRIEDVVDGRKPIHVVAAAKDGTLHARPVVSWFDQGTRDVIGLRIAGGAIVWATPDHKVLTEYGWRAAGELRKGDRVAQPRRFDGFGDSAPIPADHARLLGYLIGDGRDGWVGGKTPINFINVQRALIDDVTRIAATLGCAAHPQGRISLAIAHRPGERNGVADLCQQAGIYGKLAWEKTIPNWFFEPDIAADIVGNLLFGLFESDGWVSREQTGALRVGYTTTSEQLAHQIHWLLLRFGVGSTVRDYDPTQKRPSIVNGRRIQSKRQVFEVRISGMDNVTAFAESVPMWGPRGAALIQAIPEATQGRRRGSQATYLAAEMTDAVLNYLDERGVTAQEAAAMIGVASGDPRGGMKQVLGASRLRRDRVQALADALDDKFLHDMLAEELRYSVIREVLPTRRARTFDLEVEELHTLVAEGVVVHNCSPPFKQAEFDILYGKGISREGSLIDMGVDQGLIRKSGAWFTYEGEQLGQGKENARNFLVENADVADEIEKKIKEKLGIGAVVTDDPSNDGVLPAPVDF

[7] = molecular target: T3, Heat shock factor protein 1 (Mus musculus, UniProt P38532); test: inhibition of MG132-induced HSE-luciferase signal, confirmation, cell-based, NIH3T3, luminescence, dose retest (AID 2382); format: functional;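 also: NIH3T3 fibroblasts with HSF1-driven luciferase reporter stressed by proteasome inhibitor MG132; luminescence from HSF1-driven luciferase expression after 8 hours of MG132 stress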
T3 sequence (P38532 whole entry): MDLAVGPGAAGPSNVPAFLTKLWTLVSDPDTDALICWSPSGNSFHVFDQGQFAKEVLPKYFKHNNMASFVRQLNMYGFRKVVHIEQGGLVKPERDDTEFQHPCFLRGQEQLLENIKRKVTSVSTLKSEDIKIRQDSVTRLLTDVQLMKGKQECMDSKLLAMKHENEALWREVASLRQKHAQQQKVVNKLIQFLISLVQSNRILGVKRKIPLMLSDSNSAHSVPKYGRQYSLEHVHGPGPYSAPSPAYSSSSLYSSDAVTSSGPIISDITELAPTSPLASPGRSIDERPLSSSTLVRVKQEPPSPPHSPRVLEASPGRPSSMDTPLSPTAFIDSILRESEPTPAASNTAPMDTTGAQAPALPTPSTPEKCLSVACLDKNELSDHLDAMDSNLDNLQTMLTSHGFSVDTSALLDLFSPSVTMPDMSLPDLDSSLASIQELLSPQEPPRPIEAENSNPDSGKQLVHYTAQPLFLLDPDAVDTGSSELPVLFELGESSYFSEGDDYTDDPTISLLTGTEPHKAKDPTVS

[8] = inhibitors of firefly luciferase expression or activity, dose response, H4 neuroglioma cells, luminescence (AID 1990); format: functional, cell-based
[9] = NIH-3T3 fibroblast cytotoxicity, dose response, cytotoxicity control, cell-based, fluorescence, Alamar Blue, secondary assay (AID 2327); format: functional;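 also: NIH-3T3 mouse fibroblasts cultured with fluconazole at 8 µg/mL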
[10] = inhibitors of SNCA 5'UTR-driven reporter translation, confirmation, H4 neuroglioma cells, luminescence (AID 1988); format: functional, cell-based
[11] = Luminescence Cell-Based Dose Response HTS to Identify Inhibitors of 5'UTR Stem-Loop Driven Prion Protein mRNA Translation in H4 Neuroglioblastoma Cells. [Related pubchem assays: 1827 (Project Summary), 1813 (Primary HTS)]; format: functional
[12] = cytotoxicity in HEK-293T cells, dose response, cytotoxicity control for BCR NF-kB inhibitor project, luminescence, B-cell screen hits (AID 489021); format: functional, cell-based;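 also: HEK-293T cells carrying an NF-kB luciferase reporter; cells exposed to compound for about 14 hours before viability readout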
[13] = molecular target: UDP-galactopyranose mutase (Mycobacterium tuberculosis, UniProt P9WIQ1); test: Inhibitors of Mycobacterium tuberculosis UDP-galactopyranose mutase (UGM) enzyme Measured in Biochemical System Using Plate Reader - 2105-02_Inhibitor_Dose_CherryPick_Activity. [Related pubchem assays (depositor defined):AID504439]
[14] = test system: BJ; test: cells; format: functional, cell-based; settings: Homo sapiens
[15] = cytotoxicity in HEK-293T cells, dose response, cytotoxicity control for TCR NF-kB inhibitor project, luminescence, T-cell screen hits (AID 489026); format: functional, cell-based;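 also: cells exposed to compound about 14 hours before the viability readout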
[16] = test system: BJ; test: cytotoxicity toward BJ-TERT fibroblasts, dose response, cell-based, RAS-independent, luminescence (AID 1933); format: functional; settings: Homo sapiens
[17] = cytotoxicity toward DRD oncogenic fibroblasts, dose response, cell-based, non-viral oncogenic, luminescence (AID 1934); format: functional; settings: Homo sapiens
[18] = test system: BJ; test: cytotoxicity toward BJ-TERT-LT-ST fibroblasts, dose response, cell-based, RAS-independent, luminescence (AID 1935); format: functional; settings: Homo sapiens;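 also: BJ fibroblasts immortalized with TERT plus LT and ST oncogenes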
[19] = molecular target: Intestinal-type alkaline phosphatase (Mus musculus, UniProt P24822); test: PubChem AID 488875; format: functional
[20] = molecular target: T4, Intestinal-type alkaline phosphatase (Homo sapiens, UniProt P09923); test: human IAP activators, dose response, biochemical, luminescent, uHTS hits, set 2 (AID 488817); format: functional;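 also: potency of activators that raise enzyme activity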
[21] = molecular target: T4, Intestinal-type alkaline phosphatase; test: human intestinal alkaline phosphatase activators, dose response, biochemical, luminescence, uHTS hits (AID 463120); format: functional
[22] = molecular target: T5, Alkaline phosphatase, tissue-nonspecific isozyme (Homo sapiens, UniProt P05186); test: TNAP enzyme activators, dose response, selectivity assay for human IAP activator project, biochemical, TNAP isozyme, human IAP uHTS hits (AID 488886); format: functional;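 also: potency of compounds raising TNAP activity as a selectivity check on IAP activators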
T5 sequence (P05186 whole entry): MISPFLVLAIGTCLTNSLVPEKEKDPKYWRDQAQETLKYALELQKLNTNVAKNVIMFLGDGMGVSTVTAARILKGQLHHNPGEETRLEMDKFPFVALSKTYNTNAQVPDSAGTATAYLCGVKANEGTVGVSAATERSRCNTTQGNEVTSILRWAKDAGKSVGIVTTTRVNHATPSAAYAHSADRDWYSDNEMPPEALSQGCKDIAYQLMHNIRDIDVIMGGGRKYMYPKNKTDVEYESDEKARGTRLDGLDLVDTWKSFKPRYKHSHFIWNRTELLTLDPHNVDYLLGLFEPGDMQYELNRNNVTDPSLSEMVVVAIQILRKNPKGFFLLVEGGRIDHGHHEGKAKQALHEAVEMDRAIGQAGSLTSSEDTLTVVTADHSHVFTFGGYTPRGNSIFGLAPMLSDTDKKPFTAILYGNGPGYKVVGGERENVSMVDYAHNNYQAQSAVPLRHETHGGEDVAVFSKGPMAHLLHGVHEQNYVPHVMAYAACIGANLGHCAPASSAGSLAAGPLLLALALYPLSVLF
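For CC50 in this document: cells exposed to compound for 72 hours before luminescence readout.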

T4 sequence (P09923 whole entry): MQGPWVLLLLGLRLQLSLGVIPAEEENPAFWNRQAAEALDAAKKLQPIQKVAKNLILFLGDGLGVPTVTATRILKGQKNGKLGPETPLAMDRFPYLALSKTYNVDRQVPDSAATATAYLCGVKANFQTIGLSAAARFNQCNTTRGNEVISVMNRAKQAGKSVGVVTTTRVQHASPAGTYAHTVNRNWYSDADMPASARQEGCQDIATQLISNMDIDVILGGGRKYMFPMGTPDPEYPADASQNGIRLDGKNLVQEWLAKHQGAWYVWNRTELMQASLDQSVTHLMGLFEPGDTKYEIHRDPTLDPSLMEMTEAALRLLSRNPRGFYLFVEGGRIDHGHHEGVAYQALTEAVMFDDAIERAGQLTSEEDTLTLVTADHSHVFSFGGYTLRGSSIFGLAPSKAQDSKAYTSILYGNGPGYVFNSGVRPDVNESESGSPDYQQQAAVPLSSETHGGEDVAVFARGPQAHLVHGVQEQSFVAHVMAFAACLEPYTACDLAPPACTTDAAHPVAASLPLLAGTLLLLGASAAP
Sequence of UDP-galactopyranose mutase (P9WIQ1 whole entry): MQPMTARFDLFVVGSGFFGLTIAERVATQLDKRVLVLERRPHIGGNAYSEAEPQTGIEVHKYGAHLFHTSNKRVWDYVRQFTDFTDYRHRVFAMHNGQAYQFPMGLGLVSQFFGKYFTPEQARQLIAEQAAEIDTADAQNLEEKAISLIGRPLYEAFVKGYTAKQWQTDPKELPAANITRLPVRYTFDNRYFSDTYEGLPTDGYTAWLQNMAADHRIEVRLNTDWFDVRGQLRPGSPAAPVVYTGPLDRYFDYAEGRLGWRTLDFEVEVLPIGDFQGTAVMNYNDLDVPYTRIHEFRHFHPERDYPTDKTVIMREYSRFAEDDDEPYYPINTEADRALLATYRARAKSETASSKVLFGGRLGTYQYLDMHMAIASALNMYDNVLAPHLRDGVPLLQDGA
Sequence of Intestinal-type alkaline phosphatase (Mus musculus, UniProt P24822) (P24822 whole entry): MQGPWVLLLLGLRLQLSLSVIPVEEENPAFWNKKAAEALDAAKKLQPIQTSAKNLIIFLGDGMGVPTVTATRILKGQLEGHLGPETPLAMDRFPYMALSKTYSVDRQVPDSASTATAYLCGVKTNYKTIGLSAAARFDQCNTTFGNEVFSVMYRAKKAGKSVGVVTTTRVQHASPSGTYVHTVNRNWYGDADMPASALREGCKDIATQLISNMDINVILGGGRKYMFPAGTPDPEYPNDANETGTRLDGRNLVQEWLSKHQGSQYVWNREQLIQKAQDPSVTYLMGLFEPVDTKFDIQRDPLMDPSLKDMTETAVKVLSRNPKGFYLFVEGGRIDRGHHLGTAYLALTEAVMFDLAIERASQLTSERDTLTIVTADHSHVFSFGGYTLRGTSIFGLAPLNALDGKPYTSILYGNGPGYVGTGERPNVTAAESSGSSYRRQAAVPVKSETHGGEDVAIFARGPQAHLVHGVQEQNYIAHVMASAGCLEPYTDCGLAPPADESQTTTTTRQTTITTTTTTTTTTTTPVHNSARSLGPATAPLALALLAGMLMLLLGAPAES

O=C(CCl)N(c1ccc(Cl)cc1)c1c[nH]c2ccccc12
AC50 [1]: 12.5 µM (active) | EC50 [2]: < 6 µM (inconclusive) | AC50 [3]: 2.46 µM (active) | EC50 [4]: 0.412 µM (active) | CC50 [5]: 0.86 µM (active) | EC50 [6]: 0.195 µM (active) | EC50 [7]: 2.72 µM (active) | EC50 [8]: 13.2 µM (active) | EC50 [9]: 4.07 µM (inconclusive) | EC50 [10]: 8.46 µM (active) | EC50 [11]: 15.5 µM (active) | IC50 [12]: 15 µM (active)

Cc1nn(C)cc1N1C(=O)c2cccc3c(N)ccc(c23)C1=O
AC50 [13]: 1.91 µM (active)

O=C(Cc1ccc(-c2ccccc2)cc1)NCc1ccccc1
EC50 [14]: 13.6 µM (inconclusive) | IC50 [15]: > 80 µM (inactive) | EC50 [16]: 0.385 µM (active) | EC50 [17]: 0.489 µM (active) | EC50 [18]: 0.279 µM (inconclusive)

Cc1ccccc1CN1CCC(n2nccc2NC(=O)CCCc2ccccc2)CC1
EC50 [19]: 61 µM (active) | EC50 [20]: 64.1 µM (active) | EC50 [21]: 70.7 µM (active) | EC50 [22]: 63.4 µM (active)
